# Data reported in ChEMBL document CHEMBL5360530, “Structure activity relationship (SAR) and anticancer activity of pyrrolidine derivatives: Recent developments and future prospects (A review)” (Eur J Med Chem, 2023).
# Legend:
# HCT-116 = test: Anticancer activity against human HCT-116 cells assessed as cell growth inhibition measured after 48 hrs by MTT assay; format: functional, cell-based; conditions: HCT-116, 48 h
# HepG2 [1] = test: Anticancer activity against human HepG2 cells assessed as cell growth inhibition measured after 48 hrs by MTT assay; format: functional, cell-based; conditions: HepG2, 48 h
# PC-3 = test: Anticancer activity against human PC-3 cells assessed as cell growth inhibition measured after 48 hrs by MTT assay; format: functional, cell-based; conditions: PC-3, 48 h
# FaDu [2] = test: Anticancer activity against human FaDu cells assessed as cell growth inhibition measured after 48 hrs; format: functional, cell-based
# MCF7 [3] = test: Anticancer activity against human MCF7 cells assessed as cell growth inhibition at 100 uM by MTT assay relative to control; format: functional
# A549 = test: Anticancer activity against human A549 cells assessed as cell growth inhibition at 100 uM by MTT assay relative to control; format: functional
# HepG2 [4] = test: Anticancer activity against human HepG2 cells assessed as cell growth inhibition at 100 uM by MTT assay relative to control; format: functional
# A-431 = test: Anticancer activity against human A-431 cells assessed as cell growth inhibition at 100 uM by MTT assay relative to control; format: functional
# MCF7 [5] = test: Anticancer activity against human MCF7 cells assessed as cell growth inhibition measured after 48 hrs by MTT assay; format: functional, cell-based; conditions: MCF7, 48 h
# FaDu [6] = test: Anticancer activity against human FaDu cells assessed as cell growth inhibition; format: functional, cell-based
Compound,IC50 (HCT-116),IC50 (HepG2 [1]) [µM],inhibition at 100 µM (MCF7 [3]) [%],inhibition at 100 µM (A549) [%],inhibition at 100 µM (HepG2 [4]) [%],inhibition at 100 µM (A-431) [%],further results
O=C(/C=C/c1ccc(F)cc1)[C@H]1[C@H](c2ccc(F)cc2)[C@H]2CSCN2[C@]12C(=O)Nc1ccc(Cl)cc12,1.57 µM,≥ 1.5,,,,,IC50 (PC-3): ≥ 0.8 µM
Cc1ccc(/C=C2\CN(/C=C/c3ccccc3)C[C@]3(C2=O)[C@H](c2ccc(C)cc2)[C@@H](Cc2ccccc2)NC32C(=O)Nc3ccccc32)cc1 (stereo partly drawn),,,,,,,"IC50 (FaDu [2]; Homo sapiens, FaDu, 48 h): ≥ 19 µM"
O=C(/C=C/c1cccc(Br)c1)[C@H]1[C@H](c2cccc(Br)c2)[C@H]2CSCN2[C@]12C(=O)Nc1ccccc12,1.57 µM,≥ 1.5,,,,,IC50 (PC-3): ≥ 0.8 µM
CCCCCCCC/C=C\CC(=O)N1CC[C@H](OP(=O)([O-])OCC[N+](C)(C)C)C1,,,22.6,4.7,10.1,0.3,
O=C(/C=C/c1ccc(Cl)cc1)[C@H]1[C@H](c2ccc(Cl)cc2)C2CSCN2C12C(=O)Nc1c(Br)cc(Br)cc12 (stereo partly drawn),< 3 µM,,,,,,
O=C1Nc2ccccc2C12N[C@H](Cc1ccccc1)[C@@H](c1ccccc1Cl)[C@@]21CN(/C=C/c2ccccc2)C/C(=C\c2ccccc2Cl)C1=O (stereo partly drawn),,,,,,,"IC50 (FaDu [2]; Homo sapiens, FaDu, 48 h): ≥ 19 µM"
CCCCCC/C=C\CCCCCCCC(=O)N1CC[C@H](OP(=O)([O-])OCC[N+](C)(C)C)C1,,,22.6,4.7,10.1,0.3,
COc1ccc(/C=C2\CN(/C=C/c3ccccc3)C[C@]3(C2=O)[C@H](c2ccc(OC)cc2)[C@@H](Cc2ccccc2)NC32C(=O)Nc3ccccc32)cc1 (stereo partly drawn),,,,,,,"IC50 (FaDu [2]; Homo sapiens, FaDu, 48 h): ≥ 19 µM"
CCCCCCCCCCCCCCCCC/C=C\CCCCCCCC(=O)N1CC[C@@H](OP(=O)([O-])OCC[N+](C)(C)C)C1,,,22.6,4.7,10.1,0.3,
O=C(/C=C/c1ccc(F)cc1)[C@H]1[C@H](c2ccc(F)cc2)C2CSCN2C12C(=O)Nc1c(Br)cc(Br)cc12 (stereo partly drawn),1.57 µg/mL,≥ 0.8,,,,,IC50 (MCF7 [5]): 2.5 µg/mL
O=C1Nc2ccccc2C12N[C@H](Cc1ccccc1)[C@@H](c1ccc(Cl)cc1Cl)[C@@]21CN(/C=C/c2ccccc2)C/C(=C\c2ccc(Cl)cc2Cl)C1=O (stereo partly drawn),,,,,,,"IC50 (FaDu [2]; Homo sapiens, FaDu, 48 h): 22 µM"
CCCCCCCCCCCCCCCC(=O)N1CC[C@@H](OP(=O)([O-])OCC[N+](C)(C)C)C1,,,22.6,4.7,10.1,0.3,
O=C(/C=C/c1ccco1)[C@H]1[C@H](c2ccco2)[C@H]2CSCN2[C@]12C(=O)Nc1ccccc12,1.57 µM,≥ 1.5,,,,,IC50 (PC-3): ≥ 0.8 µM
CCCCCCCCCCCCCCCC(=O)N1CCC[C@H]1OP(=O)([O-])OCC[N+](C)(C)C,,,22.6,71.6,10.1,0.3,
COc1ccccc1/C=C1\CN(/C=C/c2ccccc2)C[C@]2(C1=O)[C@H](c1ccccc1OC)[C@@H](Cc1ccccc1)NC21C(=O)Nc2ccccc21 (stereo partly drawn),,,,,,,"IC50 (FaDu [2]; Homo sapiens, FaDu, 48 h): ≥ 19 µM"
O=C1Nc2ccccc2C12N[C@H](Cc1ccccc1)[C@@H](c1ccccc1Br)[C@@]21CN(/C=C/c2ccccc2)C/C(=C\c2ccccc2Br)C1=O (stereo partly drawn),,,,,,,"IC50 (FaDu [2]; Homo sapiens, FaDu, 48 h): ≥ 19 µM"
O=C(/C=C/c1ccco1)[C@H]1[C@H](c2ccco2)C2CSCN2C12C(=O)Nc1c(Br)cc(Br)cc12 (stereo partly drawn),1.57 µg/mL,≥ 0.8,,,,,IC50 (MCF7 [5]): 2.5 µg/mL
Cc1ccc([C@@H]2[C@H]3CSCN3[C@]3(C(=O)Nc4ccccc43)[C@H]2C(=O)/C=C/c2ccccc2)cc1,1.57 µM,≥ 1.5,,,,,IC50 (PC-3): ≥ 0.8 µM
O=C(/C=C/c1ccc(C(F)(F)F)cc1)[C@H]1[C@H](c2ccc(C(F)(F)F)cc2)[C@H]2CSCN2[C@]12C(=O)Nc1ccccc12,,≥ 1.5,,,,,IC50 (PC-3): 1 µM
O=C(/C=C/c1cccs1)[C@H]1[C@H](c2cccs2)[C@H]2CSCN2[C@]12C(=O)Nc1ccccc12,1.57 µM,≥ 1.5,,,,,IC50 (PC-3): ≥ 0.8 µM
Cc1ccccc1/C=C1\CN(/C=C/c2ccccc2)C[C@]2(C1=O)[C@H](c1ccccc1C)[C@@H](Cc1ccccc1)NC21C(=O)Nc2ccccc21 (stereo partly drawn),,,,,,,"IC50 (FaDu [2]; Homo sapiens, FaDu, 48 h): 23.5 µM"
CCCCCCCCCCCCCCCCCC/C=C\CCCCCCCC(=O)N1CCC[C@@H]1OP(=O)([O-])OCC[N+](C)(C)C,,,22.6,4.7,10.1,0.3,
O=C(/C=C/c1ccc2ccccc2c1)[C@H]1[C@H](c2ccc3ccccc3c2)[C@H]2CSCN2[C@]12C(=O)Nc1ccccc12,1.57 µM,≥ 1.5,,,,,IC50 (PC-3): ≥ 0.8 µM
Cc1cccc(/C=C2\CN(/C=C/c3ccccc3)C[C@]3(C2=O)[C@H](c2cccc(C)c2)[C@@H](Cc2ccccc2)NC32C(=O)Nc3ccccc32)c1 (stereo partly drawn),,,,,,,"IC50 (FaDu [2]; Homo sapiens, FaDu, 48 h): 21.8 µM"
CCCCCCCCCCCCCCCC(=O)N1CCC[C@@H]1OP(=O)([O-])OCC[N+](C)(C)C,,,22.6,4.7,10.1,0.3,

Compound,IC50 (HCT-116),IC50 (HepG2 [1]) [µM],inhibition at 100 µM (MCF7 [3]) [%],inhibition at 100 µM (A549) [%],inhibition at 100 µM (HepG2 [4]) [%],inhibition at 100 µM (A-431) [%],further results
CCCCCC/C=C\CCCCCCCC(=O)N1CCC[C@H]1OP(=O)([O-])OCC[N+](C)(C)C,,,22.6,4.7,10.1,0.3,
COc1ccc(/C=C/C(=O)[C@H]2[C@H](c3ccc(OC)cc3)[C@H]3CSCN3[C@]23C(=O)Nc2ccccc23)cc1,1.57 µM,≥ 1.5,,,,,IC50 (PC-3): ≥ 0.8 µM
O=C(/C=C/c1ccc(Br)cc1)[C@H]1[C@H](c2ccc(Br)cc2)[C@H]2CSCN2[C@]12C(=O)Nc1ccccc12,3 µM,0.8,,,,,IC50 (PC-3): ≥ 0.8 µM
CCCCCCCC/C=C\CC(=O)N1CCC[C@H]1COP(=O)([O-])OCC[N+](C)(C)C,,,91,4.7,10.1,0.3,
BLEOMYCIN,,,,,,,IC50 (FaDu [2]; fadu): 31 µM
COc1cccc(/C=C2\CN(/C=C/c3ccccc3)C[C@]3(C2=O)[C@H](c2cccc(OC)c2)[C@@H](Cc2ccccc2)NC32C(=O)Nc3ccccc32)c1 (stereo partly drawn),,,,,,,"IC50 (FaDu [2]; Homo sapiens, FaDu, 48 h): ≥ 19 µM"
CCCCCC/C=C\CCCCCCCC(=O)N1CCC[C@@H]1OP(=O)([O-])OCC[N+](C)(C)C,,,22.6,4.7,10.1,0.3,
O=C1Nc2ccccc2C12N[C@H](Cc1ccccc1)[C@@H](c1ccc(Br)cc1)[C@@]21CN(/C=C/c2ccccc2)C/C(=C\c2ccc(Br)cc2)C1=O (stereo partly drawn),,,,,,,"IC50 (FaDu [2]; Homo sapiens, FaDu, 48 h): ≥ 19 µM"
CCCCCCCCCCCCCCCC(=O)N1CC[C@H](COP(=O)([O-])OCC[N+](C)(C)C)C1,,,74.6,71.6,57.3,74.2,
CCCCCCCCCCCCCCCCC/C=C\CCCCCCCC(=O)N1CC[C@H](OP(=O)([O-])OCC[N+](C)(C)C)C1,,,22.6,4.7,10.1,0.3,
CCCCCCCCCCCCCCCCCC/C=C\CCCCCCCC(=O)N1CCC[C@H]1OP(=O)([O-])OCC[N+](C)(C)C,,,22.6,4.7,10.1,0.3,
CCCCCCCC/C=C\CC(=O)N1CCC[C@@H]1COP(=O)([O-])OCC[N+](C)(C)C,,,93,4.7,10.1,0.3,
O=C(/C=C/c1cccc(Br)c1)[C@H]1[C@H](c2cccc(Br)c2)C2CSCN2C12C(=O)Nc1c(Br)cc(Br)cc12 (stereo partly drawn),< 3 µM,,,,,,
CCCCCCCC/C=C\CC(=O)N1CC[C@@H](COP(=O)([O-])OCC[N+](C)(C)C)C1,,,92.9,58.7,72.8,67.3,
CCCCCCCCCCCCCCCCOP(=O)([O-])OCC[N+](C)(C)C [MILTEFOSINE],,,69.4,,31.3,35.4,
O=C(/C=C/c1c(Cl)cccc1Cl)[C@H]1[C@H](c2c(Cl)cccc2Cl)[C@H]2CSCN2[C@]12C(=O)Nc1ccccc12,1.57 µM,≥ 1.5,,,,,IC50 (PC-3): ≥ 0.8 µM
O=C(/C=C/c1ccc(Br)cc1)[C@H]1[C@H](c2ccc(Br)cc2)C2CSCN2C12C(=O)Nc1c(Br)cc(Br)cc12 (stereo partly drawn),2.2 µM,,,,,,IC50 (MCF7 [5]): 2.5 µM
Cc1ccc(/C=C/C(=O)[C@H]2[C@H](c3ccc(C)cc3)[C@H]3CSCN3[C@]23C(=O)Nc2ccccc23)cc1,1.57 µM,≥ 1.5,,,,,IC50 (PC-3): ≥ 0.8 µM
O=C(/C=C/c1ccc(F)cc1)[C@H]1[C@H](c2ccc(F)cc2)[C@H]2CSCN2[C@]12C(=O)Nc1ccccc12,1.57 µM,≥ 1.5,,,,,IC50 (PC-3): ≥ 0.8 µM
Cc1ccc([C@H]2[C@H]([N+](=O)[O-])[C@@H](Cc3c[nH]cn3)N[C@]23C(=O)Nc2ccccc23)cc1,,,,,,,IC50 (FaDu [6]): ≥ 30 µM
CCCCCC/C=C\CCCCCCCC(=O)N1CC[C@@H](OP(=O)([O-])OCC[N+](C)(C)C)C1,,,22.6,4.7,10.1,0.3,
"Cc1ccc(S(=O)(=O)N2CCCC2C(=O)Nc2ccc3c(C)cc(=O)oc3c2)cc1 (single isomer, unassigned)",,,,,,,IC50 (MCF7 [5]): 1.07 µM
O=C(/C=C/c1cccc([N+](=O)[O-])c1)[C@H]1[C@H](c2cccc([N+](=O)[O-])c2)C2CSCN2C12C(=O)Nc1c(Br)cc(Br)cc12 (stereo partly drawn),2.8 µM,5,,,,,IC50 (MCF7 [5]): 4 µM
Cc1ccc(/C=C/C(=O)[C@H]2[C@H](c3ccc(C)cc3)C3CSCN3C23C(=O)Nc2c(Br)cc(Br)cc23)cc1 (stereo partly drawn),1.57 µg/mL,≥ 0.8,,,,,IC50 (MCF7 [5]): 2.5 µg/mL
O=C(/C=C/c1ccc(F)cc1)[C@H]1[C@H](c2ccc(F)cc2)[C@H]2CSCN2[C@]12C(=O)Nc1ccc(Br)cc12,,0.8,,,,,IC50 (PC-3): ≥ 0.8 µM
